Each block holds one compound with its values, some of them ahead of it.
Columns and labels:
[1] = Chronic allograft nephropathy diagnosis in renal transplant patients (protocol biopsies, Banff 97); conditions: EVR co-administration
[2] = MPA pharmacokinetics in renal transplant patients on MMF (plasma HPLC-UV, Bayesian estimation of AUC); type: in vivo, human; conditions: for AUC(0-t) / Cmax: human, plasma; for AUC(0-t): MPA AUC(0–12); for Patients with MPA AUC outside the therapeutic window range: range 30–60 h mg/L
Description: Anonymized medical records of 404 patients receiving immunosuppressant therapy after renal transplantation hospitalized at Limoges University Hospital (France) during the study period from 2011 to 2012 were reviewed. […] The patients were excluded if they received immunosuppression with other medicaments and underwent transplantation of other organs.
All patients received prednisolone orally by standard hospital practice.
According to the MMF daily dose, the study patients were allocated into the 3 study groups: the low MMF dose group received 1000 mg per day (28 patients); medium MMF dose group, 2000 mg per day (54 patients); and high MMF dose group, 3000 mg per day (18 patients).
Blood samples were collected in EDTA tubes at 20 minutes, 1 and 3 hours after the administration of MMF. Plasma was separated by centrifugation. […] Blood serum (500 μL), an internal standard (50 μL) (thiopental in methanol 1 g/L diluted with deproteinized water to 25 mg/L), and calibrators were acidified with hydrochloric acid and extracted with dichloromethane (5 mL). […] The organic fraction was then evaporated to dryness under a stream of nitrogen. The dry residue was reconstituted with 100-μL elution solvent (KH2PO4 buffer/acetonitrile [70/30 v/v] at pH = 2.6). Then, the sample (40 μL) was injected into the HPLC system with a steel column Nucleosil C18, 5 μm (250 × 4.6 mm, id) and with UV detection at 300 nm.

[3] = Low-dose MMF group, 1000 mg/day, EVR group

Chronic allograft nephropathy diagnosed, patients ([1]; high MMF dose group (2 of 4)): 50.0% | Chronic allograft nephropathy diagnosed, patients ([1]; in total): 64.7% | Chronic allograft nephropathy diagnosed, patients ([1]; low MMF dose group (7 of 9)): 77.8% | Chronic allograft nephropathy diagnosed, patients ([1]; medium MMF dose group (2 of 4)): 50.0%
SMILES: CO[C@H]1C[C@@H]2CC[C@@H](C)[C@@](O)(O2)C(=O)C(=O)N2CCCC[C@H]2C(=O)O[C@H]([C@H](C)C[C@@H]2CC[C@@H](OCCO)[C@H](OC)C2)CC(=O)[C@H](C)/C=C(\C)[C@@H](O)[C@@H](OC)C(=O)[C@H](C)C[C@H](C)/C=C/C=C/C=C/1C [EVR, everolimus]

MPA AUC lower in low CsA dose group versus high CsA dose group ([2]; CsA 120–180 mg versus 240–300 mg): approximately 33% | MPA C0, mean ± SD (range) ([2]; CsA + MMF group, all MMF doses (n = 83)): 1.00 ± 0.47 (0.00–2.00) mg/L | MPA C0, mean ± SD (range) ([2]; EVR + MMF group, all MMF doses (n = 17)): 2.58 ± 1.43 (0.68–4.98) mg/L | MPA C0, mean ± SD (range) ([2]; High-dose MMF group, 3000 mg/day, CsA group): 1.29 ± 0.47 (1.00–2.00) mg/L | MPA C0, mean ± SD (range) ([2]; High-dose MMF group, 3000 mg/day, EVR group): 3.19 ± 1.60 (1.41–4.89) mg/L | MPA C0, mean ± SD (range) ([2]; Low-dose MMF group, 1000 mg/day, CsA group): 0.58 ± 0.51 (0.00–1.00) mg/L | MPA AUC(0–12), mean ± SD (range) [2, 3]: 31.89 ± 8.43 (20.82–42.25) h mg/L | MPA C0, mean ± SD (range) [2, 3]: 1.61 ± 0.65 (0.68–2.24) mg/L | MPA C0, mean ± SD (range) ([2]; Medium-dose MMF group, 2000 mg/day, EVR group): 4.17 ± 0.78 (3.12–4.98) mg/L | AUC(0-t) ([2]; mean ± SD (range), CsA + MMF group, all MMF doses (n = 83)): 37900 ± 14100 ng·h/mL | AUC(0-t) ([2]; mean ± SD (range), EVR + MMF group, all MMF doses (n = 17)): 47000 ± 21900 ng·h/mL | AUC(0-t) ([2]; mean ± SD (range), High-dose MMF group, 3000 mg/day, CsA group): 44600 ± 14000 ng·h/mL | AUC(0-t) ([2]; mean ± SD (range), High-dose MMF group, 3000 mg/day, EVR group): 59500 ± 18300 ng·h/mL | AUC(0-t) ([2]; mean ± SD (range), Low-dose MMF group, 1000 mg/day, CsA group): 30600 ± 12700 ng·h/mL | AUC(0-t) ([2]; mean ± SD (range), Medium-dose MMF group, 2000 mg/day, CsA group): 38700 ± 13700 ng·h/mL | AUC(0-t) ([2]; mean ± SD (range), Medium-dose MMF group, 2000 mg/day, EVR group): 68700 ± 22700 ng·h/mL | AUC(0-t) ([2]; mean ± SD, CsA + MMF, MMF 1000 mg/day, CsA 120–180 mg/day): 28100 ± 11000 ng·h/mL | AUC(0-t) ([2]; mean ± SD, CsA + MMF, MMF 1000 mg/day, CsA 180–240 mg/day): 40500 ± 11000 ng·h/mL | AUC(0-t) ([2]; mean ± SD, CsA + MMF, MMF 2000 mg/day, CsA 120–180 mg/day): 28800 ± 11100 ng·h/mL | AUC(0-t) ([2]; mean ± SD, CsA + MMF, MMF 2000 mg/day, CsA 180–240 mg/day): 41800 ± 15600 ng·h/mL | AUC(0-t) ([2]; mean ± SD, CsA + MMF, MMF 2000 mg/day, CsA 240–300 mg/day): 43000 ± 6270 ng·h/mL | AUC(0-t) ([2]; mean ± SD, CsA + MMF, MMF 3000 mg/day, CsA 120–180 mg/day): 36200 ± 3700 ng·h/mL | AUC(0-t) ([2]; mean ± SD, CsA + MMF, MMF 3000 mg/day, CsA 180–240 mg/day): 43400 ± 13100 ng·h/mL | AUC(0-t) ([2]; mean ± SD, CsA + MMF, MMF 3000 mg/day, CsA 240–300 mg/day): 56800 ± 16800 ng·h/mL | Cmax ([2]; MPA Cmax related to high-dose CsA, CsA >240 mg/day): > 10000 ng/mL | Cmax ([2]; MPA Cmax, mean ± SD (range), CsA + MMF group, all MMF doses (n = 83)): 17600 ± 8510 ng/mL | Cmax ([2]; MPA Cmax, mean ± SD (range), EVR + MMF group, all MMF doses (n = 17)): 14300 ± 6380 ng/mL | Cmax ([2]; MPA Cmax, mean ± SD (range), High-dose MMF group, 3000 mg/day, CsA group): 21000 ± 7050 ng/mL | Cmax ([2]; MPA Cmax, mean ± SD (range), Low-dose MMF group, 1000 mg/day, CsA group): 15500 ± 8930 ng/mL | Cmax ([2]; MPA Cmax, mean ± SD (range), Low-dose MMF group, 1000 mg/day, EVR group): 10800 ± 4810 ng/mL | Cmax ([2]; MPA Cmax, mean ± SD (range), Medium-dose MMF group, 2000 mg/day, CsA group): 17500 ± 8580 ng/mL | Cmax ([2]; MPA Cmax, mean ± SD (range), Medium-dose MMF group, 2000 mg/day, EVR group): 17400 ± 7740 ng/mL | Cmax ([2]; MPA Cmax, mean ± SD, CsA + MMF, MMF 1000 mg/day, CsA 120–180 mg/day): 12100 ± 5590 ng/mL | Cmax ([2]; MPA Cmax, mean ± SD, CsA + MMF, MMF 1000 mg/day, CsA 180–240 mg/day): 22800 ± 10800 ng/mL | Cmax ([2]; MPA Cmax, mean ± SD, CsA + MMF, MMF 2000 mg/day, CsA 120–180 mg/day): 13000 ± 6820 ng/mL | Cmax ([2]; MPA Cmax, mean ± SD, CsA + MMF, MMF 2000 mg/day, CsA 180–240 mg/day): 17000 ± 8020 ng/mL | Cmax ([2]; MPA Cmax, mean ± SD, CsA + MMF, MMF 2000 mg/day, CsA 240–300 mg/day): 22800 ± 8860 ng/mL | Cmax ([2]; MPA Cmax, mean ± SD, CsA + MMF, MMF 3000 mg/day, CsA 120–180 mg/day): 19000 ± 5390 ng/mL | Cmax ([2]; MPA Cmax, mean ± SD, CsA + MMF, MMF 3000 mg/day, CsA 180–240 mg/day): 22800 ± 8120 ng/mL | Cmax ([2]; MPA Cmax, mean ± SD, CsA + MMF, MMF 3000 mg/day, CsA 240–300 mg/day): 21200 ± 8770 ng/mL | MPA AUC(0–12) higher with MMF + EVR than with MMF + CsA ([2]; medium MMF dose (2000 mg)): 43%
SMILES: COc1c(C)c2c(c(O)c1C/C=C(\C)CCC(=O)O)C(=O)OC2 [MPA, mycophenolic acid]
Patients with MPA AUC outside the therapeutic window range ([2]; MMF + CsA): 31.3% | Patients with MPA AUC outside the therapeutic window range ([2]; MMF + EVR): 47.00% | Patients with MPA AUC outside the therapeutic window range ([2]; all study patients): 34%
